In PubChem BioAssay AID328 (DTP/NCI, 2004):
“And” between values parts separate entries of the source, which are not always exact repeats. Equal values may be shown once. Toxic doses and inconclusive results are not listed.

System: BDF1 mice, P388 leukemia ip, median survival T/C
Assay: NCI In Vivo Anticancer Drug Screen. Data for tumor model P388 Leukemia (intraperitoneal) in B6D2F1 (BDF1) mice
Details: endpoint: median survival time, higher = longer survival
Procedure, shortened: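 Compound-treated tumour-bearing mice were compared with vehicle-treated controls. Survival was recorded, and the value is the treated-group measurement divided by the control-group measurement (T/C).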

[1] = dose: 50.0 mg/kg/injection, schedule: Q04DX003 (ip), vehicle: Klucel (hydroxypropylcellulose) (HPC)
[2] = dose: 100.0 mg/kg/injection, schedule: Q04DX003 (ip), vehicle: Klucel (hydroxypropylcellulose) (HPC)
[3] = dose: 200.0 mg/kg/injection, schedule: Q04DX003 (ip), vehicle: Klucel (hydroxypropylcellulose) (HPC)
[4] = dose: 50.0 mg/kg/injection, schedule: Q01DX009 (ip), vehicle: saline with Tween-80
[5] = dose: 100.0 mg/kg/injection, schedule: Q01DX009 (ip), vehicle: saline with Tween-80
[6] = dose: 50.0 mg/kg/injection, schedule: Q01DX009 (ip), vehicle: saline
[7] = dose: 100.0 mg/kg/injection, schedule: Q01DX009 (ip), vehicle: saline
[8] = dose: 200.0 mg/kg/injection, schedule: Q01DX009 (ip), vehicle: saline
[9] = dose: 400.0 mg/kg/injection, schedule: Q01DX009 (ip), vehicle: saline
[10] = dose: 3.12 mg/kg/injection, schedule: Q04DX003 (ip), vehicle: water
[11] = dose: 6.25 mg/kg/injection, schedule: Q04DX003 (ip), vehicle: water
[12] = dose: 12.5 mg/kg/injection, schedule: Q04DX003 (ip), vehicle: water

In the case of `NC(=O)c1ccc(N)nc1`, the T/C (dose: 6.25 mg/kg/injection, schedule: Q04DX003 (ip), vehicle: saline) was 121 % of control, the T/C (dose: 8.33 mg/kg/injection, schedule: Q04DX003 (ip), vehicle: saline with Tween-80) was 100 % of control and the T/C (dose: 12.5 mg/kg/injection, schedule: Q04DX003 (ip), vehicle: saline with Tween-80) was 100 % of control. The T/C (dose: 18.75 mg/kg/injection, schedule: Q04DX003 (ip), vehicle: saline with Tween-80) was 105 % of control and 108 % of control and the T/C (dose: 25.0 mg/kg/injection, schedule: Q04DX003 (ip), vehicle: saline) was 114 % of control.

For `CCN1C(=O)c2ccccc2C1=O`, the T/C [1] was 104 % of control, the T/C (dose: 100.0 mg/kg/injection, schedule: Q01DX001 (ip), vehicle: Klucel (hydroxypropylcellulose) (HPC)) was 104 % of control and the T/C [2] was 118 % of control. The T/C (dose: 200.0 mg/kg/injection, schedule: Q01DX001 (ip), vehicle: Klucel (hydroxypropylcellulose) (HPC)) was 108 % of control, the T/C [3] was 100 % of control and the T/C (dose: 400.0 mg/kg/injection, schedule: Q01DX001 (ip), vehicle: Klucel (hydroxypropylcellulose) (HPC)) was 104 % of control.

With `Cc1cc(NC(=O)Nc2ccc(Cl)cc2)no1` the T/C [4] was 100 % of control, the T/C [5] was 100 % of control and the T/C (dose: 200.0 mg/kg/injection, schedule: Q01DX009 (ip), vehicle: saline with Tween-80) was 100 % of control.

In the case of `CCCCCCCCOB(OCCCCCCCC)OCCCCCCCC`, the T/C (dose: 25.0 mg/kg/injection, schedule: Q04DX003 (ip), vehicle: saline with Tween-80) was 91 % of control, the T/C (dose: 50.0 mg/kg/injection, schedule: Q04DX003 (ip), vehicle: saline with Tween-80) was 100 % of control and the T/C (dose: 100.0 mg/kg/injection, schedule: Q04DX003 (ip), vehicle: saline with Tween-80) was 91 % of control and 100 % of control.

With `O=C(Cl)C1CCCCC1` the T/C [4] was 100 % of control and the T/C [5] was 104 % of control.

With `CCOC(=O)C(NC=O)C(=O)OCC` the T/C [6] was 105 % of control, the T/C [7] was 94 % of control and the T/C [8] was 93 % of control. For the same molecule, the T/C [9] was 93 % of control.

With `CSCS(=O)C[C@H](CO)NC(=O)/C=C/c1c(C)[nH]c(=O)[nH]c1=O` (stereo partly specified) the T/C (dose: 0.15 mg/kg/injection, schedule: Q01DX010 (ip), vehicle: saline) was 109 % of control, the T/C (dose: 0.3 mg/kg/injection, schedule: Q01DX010 (ip), vehicle: saline) was 122 % of control and the T/C (dose: 0.6 mg/kg/injection, schedule: Q01DX010 (ip), vehicle: saline) was 172 % of control. The T/C (dose: 0.72 mg/kg/injection, schedule: Q04DX003 (ip), vehicle: saline) was 105 % of control, the T/C (dose: 0.78 mg/kg/injection, schedule: Q04DX002 (ip), vehicle: Klucel (hydroxypropylcellulose) (HPC)) was 100 % of control and 109 % of control and the T/C (dose: 0.86 mg/kg/injection, schedule: Q04DX003 (ip), vehicle: saline) was 108 % of control. For the same molecule, the T/C (dose: 1.0 mg/kg/injection, schedule: Q04DX003 (ip), vehicle: saline) was 121 % of control, the T/C (dose: 1.2 mg/kg/injection, schedule: Q01DX010 (ip), vehicle: saline) was 100 % of control and the T/C (dose: 1.2 mg/kg/injection, schedule: Q04DX003 (ip), vehicle: saline) was 123 % of control. For the same molecule, the T/C (dose: 1.56 mg/kg/injection, schedule: Q04DX002 (ip), vehicle: Klucel (hydroxypropylcellulose) (HPC)) was 109 % of control, the T/C (dose: 2.0 mg/kg/injection, schedule: Q04DX003 (ip), vehicle: saline) was 156 % of control and the T/C (dose: 2.4 mg/kg/injection, schedule: Q04DX003 (ip), vehicle: saline) was 97 % of control. For the same molecule, the T/C (dose: 3.33 mg/kg/injection, schedule: Q04DX003 (ip), vehicle: saline) was 106 % of control, the T/C (dose: 6.25 mg/kg/injection, schedule: Q04DX002 (ip), vehicle: Klucel (hydroxypropylcellulose) (HPC)) was 118 % of control and the T/C (dose: 173.0 micrograms/kg/injection, schedule: Q01DX009 (ip), vehicle: saline) was 106 % of control. The T/C (dose: 288.0 micrograms/kg/injection, schedule: Q01DX009 (ip), vehicle: saline) was 110 % of control and the T/C (dose: 480.0 micrograms/kg/injection, schedule: Q01DX009 (ip), vehicle: saline) was 99 % of control.

In the case of `Nc1nc(N)c2cc(CNc3ccc(Cl)c(C(=O)NC(CC(=O)O)C(=O)O)c3)cnc2n1` (stereo unspecified), the T/C [7] was 100 % of control, the T/C (dose: 100.0 mg/kg/injection, schedule: Q04DX003 (ip), vehicle: saline) was 102 % of control and the T/C [8] was 100 % of control. The T/C (dose: 200.0 mg/kg/injection, schedule: Q04DX003 (ip), vehicle: saline) was 99 % of control, the T/C [9] was 108 % of control and the T/C (dose: 400.0 mg/kg/injection, schedule: Q04DX003 (ip), vehicle: saline) was 94 % of control.

For `CC1=CCCC2(CCC3(C)CC32)C1(C)C` (stereo unspecified), the T/C (dose: 45.0 mg/kg/injection, schedule: Q01DX009 (ip), vehicle: saline) was 90 % of control, the T/C [6] was 100 % of control and the T/C (dose: 67.0 mg/kg/injection, schedule: Q01DX009 (ip), vehicle: saline) was 109 % of control. For the same molecule, the T/C [7] was 113 % of control and 120 % of control.

In the case of `COCCCNC1=C(Cl)C(=O)c2ccccc2C1=O`, the T/C (dose: 50.0 mg/kg/injection, schedule: Q01DX009 (ip), vehicle: Klucel (hydroxypropylcellulose) (HPC)) was 106 % of control, the T/C (dose: 100.0 mg/kg/injection, schedule: Q01DX009 (ip), vehicle: Klucel (hydroxypropylcellulose) (HPC)) was 113 % of control and the T/C (dose: 200.0 mg/kg/injection, schedule: Q01DX009 (ip), vehicle: Klucel (hydroxypropylcellulose) (HPC)) was 109 % of control.

For `CC(=O)Oc1ccc(C2(c3ccc(OC(C)=O)cc3)C(=O)Nc3ccccc32)cc1`, the T/C [2] was 95 % of control, the T/C [3] was 104 % of control and the T/C (dose: 400.0 mg/kg/injection, schedule: Q04DX003 (ip), vehicle: Klucel (hydroxypropylcellulose) (HPC)) was 100 % of control.

For `CCN(CCNc1ccc(CO)c2sc3ccccc3c(=O)c12)CC(C)(C)O`, the T/C [1] was 102 % of control, the T/C [2] was 100 % of control and the T/C [3] was 106 % of control.

For `CCSc1ncc2cnccn12`, the T/C (dose: 0.37 mg/kg/injection, schedule: Q01DX009 (ip), vehicle: water) was 108 % of control, the T/C (dose: 0.75 mg/kg/injection, schedule: Q01DX009 (ip), vehicle: water) was 111 % of control and 112 % of control and the T/C (dose: 1.0 mg/kg/injection, schedule: Q01DX009 (ip), vehicle: water) was 102 % of control. The T/C (dose: 1.5 mg/kg/injection, schedule: Q01DX009 (ip), vehicle: water) was 112 % of control and 117 % of control and 120 % of control, the T/C (dose: 2.0 mg/kg/injection, schedule: Q01DX009 (ip), vehicle: water) was 94 % of control and 105 % of control and the T/C [10] was 100 % of control. The T/C (dose: 4.0 mg/kg/injection, schedule: Q01DX009 (ip), vehicle: water) was 94 % of control and 100 % of control, the T/C (dose: 5.0 mg/kg/injection, schedule: Q01DX009 (ip), vehicle: water) was 91 % of control and the T/C (dose: 6.0 mg/kg/injection, schedule: Q01DX009 (ip), vehicle: water) was 88 % of control and 104 % of control. The T/C [11] was 100 % of control, the T/C [12] was 102 % of control and the T/C (dose: 16.0 mg/kg/injection, schedule: Q01DX009 (ip), vehicle: water) was 89 % of control.

`Nc1nc(N)c2cc(N3CCCC3c3ccc(Cl)c(Cl)c3)ccc2n1` (stereo unspecified) was tested, and the T/C (dose: 0.78 mg/kg/injection, schedule: Q01DX009 (ip), vehicle: water) was 110 % of control, the T/C (dose: 1.56 mg/kg/injection, schedule: Q01DX009 (ip), vehicle: water) was 117 % of control and the T/C (dose: 3.12 mg/kg/injection, schedule: Q01DX009 (ip), vehicle: water) was 113 % of control. For the same molecule, the T/C [10] was 104 % of control and 109 % of control, the T/C (dose: 6.25 mg/kg/injection, schedule: Q01DX009 (ip), vehicle: water) was 119 % of control and the T/C [11] was 110 % of control and 116 % of control. For the same molecule, the T/C [12] was 108 % of control and 114 % of control, the T/C (dose: 20.0 mg/kg/injection, schedule: Q04DX003 (ip), vehicle: water) was 111 % of control and the T/C (dose: 25.0 mg/kg/injection, schedule: Q04DX003 (ip), vehicle: water) was 116 % of control.

With `NNC(=O)c1ccc(Cl)cc1Nc1cccc(Cl)c1` the T/C (dose: 50.0 mg/kg/injection, schedule: Q01DX001 (ip), vehicle: saline with Tween-80) was 100 % of control, the T/C (dose: 100.0 mg/kg/injection, schedule: Q01DX001 (ip), vehicle: saline with Tween-80) was 100 % of control and the T/C (dose: 200.0 mg/kg/injection, schedule: Q01DX001 (ip), vehicle: saline with Tween-80) was 104 % of control.

In the case of `O=[N+]([O-])c1ccc(SCc2ccccc2)c2c1no[n+]2[O-]`, the T/C (dose: 15.0 mg/kg/injection, schedule: Q01DX009 (ip), vehicle: saline with Tween-80) was 105 % of control, the T/C (dose: 30.0 mg/kg/injection, schedule: Q01DX009 (ip), vehicle: saline with Tween-80) was 96 % of control and the T/C (dose: 60.0 mg/kg/injection, schedule: Q01DX009 (ip), vehicle: saline with Tween-80) was 93 % of control.
